SMILES strings stand for the structures.

T1 sequence (Q91WN4 whole entry): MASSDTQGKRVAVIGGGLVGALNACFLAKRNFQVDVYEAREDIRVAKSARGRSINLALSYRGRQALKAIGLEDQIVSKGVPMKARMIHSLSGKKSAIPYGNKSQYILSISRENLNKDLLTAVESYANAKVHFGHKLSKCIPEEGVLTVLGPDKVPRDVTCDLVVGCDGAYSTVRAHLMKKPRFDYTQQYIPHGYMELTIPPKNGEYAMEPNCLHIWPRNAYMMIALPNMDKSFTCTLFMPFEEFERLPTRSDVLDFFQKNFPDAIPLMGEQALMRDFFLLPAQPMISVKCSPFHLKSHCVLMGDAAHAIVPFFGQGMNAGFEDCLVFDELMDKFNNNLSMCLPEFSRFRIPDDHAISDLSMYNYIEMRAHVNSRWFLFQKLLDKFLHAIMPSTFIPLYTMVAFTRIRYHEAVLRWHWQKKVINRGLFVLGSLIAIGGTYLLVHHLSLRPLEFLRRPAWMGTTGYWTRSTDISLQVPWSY

This experiment concerns the target T1, KMO mouse enzyme (Mus musculus, UniProt Q91WN4).
T1 construct: KMO enzyme prepared at Evotec from mouse liver (4-6 weeks old) via mitochondria isolation; from tissue; host or cells: mouse liver (4-6 weeks old), isolated mitochondria, prepared at Evotec
Put plainly: KMO mouse enzyme assay: L-Kynurenine hydroxylation to 3-Hydroxy-Kynurenine by LC/MS (protocols substantially similar to Example 33). The conditions noted are these: compound at 30 µM; KMO enzyme from mouse liver mitochondria; 100 μM L-Kynurenine; 40 min at RT. Format: biochemical. As to the method: A method of monitoring L-Kynurenine (KYN) hydroxylation to form 3-Hydroxy-Kynurenine (3OH-KYN) by LC/MS is described. Product is quantified by multiple reaction monitoring (MRM method). […]
Using the assay protocols substantially similar to those of Example 33, the following compounds were tested.
On to `O=C(O)[C@H]1C[C@@H]1C(=O)c1ccc(C(F)(F)F)c(Cl)c1` [(1S,2S)-2-{[3-Chloro-4-(trifluoromethyl)phenyl]carbonyl}cyclopropane-1-carboxylic acid], for which the inhibition at 30 µM amounted to 102%.

`CC1(C)[C@@H](C(=O)O)[C@@H]1C(=O)c1ccc(Cl)c(Cl)c1` [(1S,3S)-3-(3,4-dichlorobenzoyl)-2,2-dimethylcyclopropane-1-carboxylic acid]: the inhibition at 30 µM stood at 15.4%.

Consider `N[C@@H](CCCCNC(=O)[C@H]1C[C@@H]1C(=O)c1ccc(Cl)c(Cl)c1)C(=O)O` [(2S)-2-Amino-6-{[(1S,2S)-2-[(3,4-dichlorophenyl)carbonyl]cyclopropyl]formamide}hexanoic acid], for which the “% Inhibition at 30 µM” value turned out to be 98%.

Regarding `O=C(O)[C@H]1N[C@@H]1C(=O)c1ccc(Cl)c(Cl)c1` [(2S,3S)-3-[(3,4-Dichlorophenyl)carbonyl]aziridine-2-carboxylic acid], the inhibition at 30 µM is 101%.

Consider `C[N+](C)(C)CC(CC(=O)O)OC(=O)[C@H]1C[C@@H]1C(=O)c1ccc(Cl)c(Cl)c1` (stereo partly drawn) [(3-Carboxy-2-{[(1S,2S)-2-[(3,4-dichlorophenyl)carbonyl]cyclopropyl]carbonyloxy}propyl)trimethylazanium], for which the “% Inhibition at 30 µM” value is on record as 99%.

Consider `CCCCOC(=O)[C@H]1C[C@@H]1C(=O)c1ccc(Cl)c(Cl)c1` [Butyl (1S,2S)-2-[(3,4-Dichlorophenyl)carbonyl]cyclopropane-1-carboxylate], for which the inhibition at 30 µM came out at 101%.

With `COC(=O)[C@H]1C[C@@H]1C(=O)c1cc(Cl)cc(Cl)c1` [Methyl (1S,2S)-2-[(3,5-dichlorophenyl)carbonyl]cyclopropane-1-carboxylate], the inhibition at 30 µM came out at 104%.

For the compound `CC(C)OC(=O)[C@H]1C[C@@H]1C(=O)c1ccc(Cl)c(Cl)c1` [Propan-2-yl (1S,2S)-2-[(3,4-dichlorophenyl)carbonyl]cyclopropane-1-carboxylate], the inhibition at 30 µM was 101%.

On to `O=C(O)[C@H]1C[C@@H]1C(=O)c1ccc(F)c(Cl)c1` [Sodium (1S,2S)-2-[(3-chloro-4-fluorophenyl)carbonyl]cyclopropane-1-carboxylate], for which the inhibition at 30 µM came to 102%.

For the compound `Cc1ccc(C(=O)[C@H]2C[C@@H]2C(=O)[O-])cc1Cl.[Na+]` [Sodium (1S,2S)-2-[(3-chloro-4-methylphenyl)carbonyl]cyclopropane-1-carboxylate], the “% Inhibition at 30 µM” value is given as 100%.

In the case of `CC(C)Oc1ccc(C(=O)[C@H]2C[C@@H]2C(=O)[O-])cc1Cl.[Na+]` [Sodium (1S,2S)-2-{[3-chloro-4-(propan-2-yloxy)phenyl]carbonyl}cyclopropane-1-carboxylate], the “% Inhibition at 30 µM” value was found to be 102%.

Turning to `O=C([O-])[C@H]1C[C@@H]1C(=O)c1ccc(C(F)(F)F)c(Cl)c1.[Na+]` [Sodium (1S,2S)-2-{[3-chloro-4-(trifluoromethyl)phenyl]carbonyl}cyclopropane-1-carboxylate], the “% Inhibition at 30 µM” value came to 102%.

In the case of `CC(C)(C)C(=O)OCOC(=O)[C@H]1C[C@@H]1C(=O)c1ccc(Cl)c(Cl)c1` [{[(1S,2S)-2-[(3,4-dichlorophenyl)carbonyl]cyclopropyl]carbonyloxy}methyl 2,2-dimethylpropanoate], the inhibition at 30 µM was found to be 102%.

For orientation: inhibition means the change of the read-out against control, counted positive when it falls. One may read the % Inhibition as the drop in the measured response relative to a control, in per cent.

Values taken from patent publication US9822058B2 (CHDI FOUNDATION, INC., priority 2012, dated 2017).
